Data set [1] can be described thus: Tolerance of the injection of increasing doses of the probe in healthy mice. It counts as in vivo. The note with it: healthy male C57B16 mice, 25, 50 and 100 μg. The procedure:
(§1) 6 healthy male C57B16 mice, aged 11 weeks, were used to evaluate the tolerance of the injection of increasing doses of the probe of example 7 (F98942) (25, 50 and 100 μg). 11 male C57B16 mice aged 10 weeks were grafted subcutaneously on the right rear paw with 2.5.10^5 B16/F10-Luc mouse melanoma cells.
(§2) The probe F98942 is placed in solution in sterile 5% glucose serum extemporaneously.

Data set [2] deals with B16/F10-Luc mouse melanoma cells. Put plainly: In vivo detection by fluorescence imaging of the probe accumulating in a tumour on an animal. The note with it: for Tumour fixation: Fluorescence at t = 24 hrs: individual mice, 24 hrs post-injection, subcutaneous B16/F10-Luc tumour in C57B16 mice; for Tumour fixation: Mean fluorescence: 24 hrs; for Detection of the probe's fluorescence in the tumour in vivo: tumour B16F10 in mice, fluorescence imaging after intravenous injection. The protocol: as §1, §2
The mice were injected with 50 μg or 25 μg of F98942 or PBS (Phosphate Buffered Saline) intravenously. They were then anaesthetised by isoflurane gas inhalation (3% isoflurane/oxygen) prior to the fluorescence imaging examination 24 and 48 hours post-injection. After 48 hours, the tumours were removed and analysed by means of fluorescence imaging. […]

SMILES strings stand for the structures. Several values for one entry are separate records, joined by “and”; a condition that tells them apart may be missing. Identical values can stand only once.

This is an account of results in patent US9439982B2, “Fluorescent cyanine-polyamine derivatives as a diagnostic probe” (PIERRE FABRE MEDICAMENT, priority 2010, dated 2016).

For the molecule `CCCCN1/C(=C/C=C/C=C/C=C/C2=[N+](CCCCCC(=O)NCCCNCCCCNCCCN)c3ccccc3C2(C)C)C(C)(C)c2ccccc21.[Br-]` [Example F98942, 1-(5-{3-[4-(3-aminopropylamino)butylamino]-propylcarbamoyl}-pentyl)-2-{(1E,3E,5E)-7-[1-butyl-3,3-dimethyl-1,3-dihydroindol-(2E)-ylidene]-hepta-1,3,5-trienyl}-3,3-dimethyl-3H-indolium bromide], the Tolerance of injection result in data set [1] is recorded as “well-tolerated regardless of the dose”. Besides, the “Tumour fixation: Fluorescence at t = 24 hrs” value in data set [2] (25 μg intravenously) is 1.52 · 10^7 [p/s/cm^2/sr]/[μW/cm^2] and 2.10 · 10^7 [p/s/cm^2/sr]/[μW/cm^2]; in data set [2] (50 μg intravenously), 3.22 · 10^7 [p/s/cm^2/sr]/[μW/cm^2] and 3.08 · 10^7 [p/s/cm^2/sr]/[μW/cm^2] and 3.12 · 10^7 [p/s/cm^2/sr]/[μW/cm^2] and 3.01 · 10^7 [p/s/cm^2/sr]/[μW/cm^2]. Moreover, the “Tumour fixation: Mean fluorescence” value in data set [2] (mean of mice 1-4, 50 μg intravenously) was 3.14 · 10^7 [p/s/cm^2/sr]/[μW/cm^2]; in data set [2] (mean of mice 5-6, 25 μg intravenously), 1.81 · 10^7 [p/s/cm^2/sr]/[μW/cm^2]. Also, in data set [2], the “Detection of the probe's fluorescence in the tumour in vivo” value is reported as “detected”.
Consider `CC1(C)C(/C=C/C2=C(c3ccc(C(=O)NCCCNCCCCNCCCN)cc3)C(=C/C=C3/N(CCCCS(=O)(=O)O)c4ccc5ccccc5c4C3(C)C)/CCC2)=[N+](CCCCS(=O)(=O)[O-])c2ccc3ccccc3c21` [comparative probe, reference compound], for which the “Detection of the probe's fluorescence in the tumour in vivo” value in data set [2] is on record as “not detected”.
